Data on 16 compounds can be found in US9475839B2, “Peptide-based inhibitor of interleukin-10 or interferon-gamma signaling” (THE UNITED STATES OF AMERICA, AS REPRESENTED BY THE …, priority 2010, dated 2016).

Non-standard residues stand in square brackets, D forms with d. Residues, ends and D or L forms follow the SMILES beside them. *: point of attachment. Palmitoyl = CCCCCCCCCCCCCCCC(=O)* A value given as a limit tells only on which side of the number the result lay.

In the first test the test system is MDA-MB-231 breast cancer cells. The test can be described thus: Inhibition of IFN-gamma-dependent growth of MDA-MB-231 cells, MTT assay, 48 hours. It counts as cell-based. As to conditions: 48 h. (Formazan colour is commonly taken as a measure of viable cells.)
Description: Cells were exposed to compounds for 48 hours and cell number was determined with the help of MTT assay.
Cells were exposed to IL10-HF-1 for 48 hours and cell number was determined with the help of MTT assay.
Peptides designed to mimic conserved regions of the receptor sequences were tested for the ability to inhibit IL10 and IFN-gamma signaling. Inhibition of IL10 signaling was tested in a mouse mast cell line MC/9. […] Abrogation of IFN-gamma signaling or STAT1 activation causes cell death in this cell line.
`CCCCCCCCCCCCCCCC(=O)N[C@@H](Cc1ccccc1)C(=O)N[C@@H](Cc1ccc(O)cc1)C(=O)N[C@H](C(=O)N[C@@H](CCCCN)C(=O)N[C@@H](CCCCN)C(=O)N[C@H](C(=O)N[C@@H](CC(N)=O)C(=O)N1CCC[C@H]1C(=O)N[C@@H](CC(C)C)C(=O)N[C@@H](CCCCN)C(=O)N[C@@H](CCC(=O)O)C(=O)N[C@@H](CCCCN)C(=O)N[C@@H](CO)C(=O)N[C@H](C(=O)N[C@H](C(=O)N[C@@H](CC(C)C)C(=O)N1CCC[C@H]1C(=O)N[C@@H](CCCCN)C(=O)N[C@@H](CO)C(N)=O)[C@@H](C)CC)[C@@H](C)CC)[C@@H](C)CC)[C@@H](C)CC` [IFNGR1-1, ε-Pal-FYIKKINPLKEKSIILPKS-NH2] (Palmitoyl-FYIKKINPLKEKSIILPKS-NH2): the GI50 (commonly the concentration that inhibits growth by half) was > 25000 nM.
Still for that read-out and setting: the same measure for `CCCCCCCCCCCCCCCC(=O)N1CCC[C@H]1C(=O)N[C@@H](CC(C)C)C(=O)N[C@@H](CCCCN)C(=O)N[C@@H](CCC(=O)O)C(=O)N[C@@H](CCCCN)C(=O)N[C@@H](CO)C(=O)N[C@H](C(=O)N[C@H](C(=O)N[C@@H](CC(C)C)C(=O)N1CCC[C@H]1C(=O)N[C@@H](CCCCN)C(=O)N[C@@H](CO)C(=O)N[C@@H](CC(C)C)C(=O)N[C@@H](CC(C)C)C(=O)N[C@@H](CO)C(=O)N[C@H](C(=O)N[C@H](C(=O)N[C@@H](CCCNC(=N)N)C(N)=O)C(C)C)C(C)C)[C@@H](C)CC)[C@@H](C)CC` [IFNGR1-3, ε-Pal-PLKEKSIILPKSLLSVVR-NH2] (Palmitoyl-PLKEKSIILPKSLLSVVR-NH2): 50 nM; for `CCCCCCCCCCCCCCCC(=O)N[C@H](C(=O)N[C@@H](CC(C)C)C(=O)N1CCC[C@H]1C(=O)N[C@@H](CCCCN)C(=O)N[C@@H](CO)C(=O)N[C@@H](CC(C)C)C(=O)N[C@@H](CC(C)C)C(=O)N[C@@H](CO)C(=O)N[C@H](C(=O)N[C@H](C(=O)N[C@@H](CCCNC(=N)N)C(=O)N[C@@H](CO)C(=O)N[C@@H](C)C(=O)N[C@H](C(N)=O)[C@@H](C)O)C(C)C)C(C)C)[C@@H](C)CC` [IFNGR1-4, ε-Pal-ILPKSLLSVVRSAT-NH2] (Palmitoyl-ILPKSLLSVVRSAT-NH2): 2500 nM.
`CCCCCCCCCCCCCCCC(=O)NCCCC[C@H](N)C(=O)NCC(=O)N[C@@H](CCCCN)C(=O)N[C@@H](CCC(=O)O)C(=O)N[C@@H](CO)C(=O)N[C@@H](CC(C)C)C(=O)N[C@H](C(=O)NCC(=O)N[C@@H](Cc1ccc(O)cc1)C(=O)N[C@@H](CCCNC(=N)N)C(=O)N1CCC[C@H]1C(=O)N[C@H](C(N)=O)[C@@H](C)O)[C@@H](C)CC` [IFNGR1-6, ε-Pal-KGKESLIGYRPT-NH2] (H-K(Palmitoyl)GKESLIGYRPT-NH2; N-terminus assumed): the GI50 stood at 70 nM.
Same read-out and setting: the same measure for `CCCCCCCCCCCCCCCC(=O)NCCCC[C@H](N)C(=O)NCC(=O)N[C@@H](Cc1ccc(O)cc1)C(=O)N[C@@H](CC(=O)O)C(=O)N[C@@H](CCCCN)C(=O)N1CCC[C@H]1C(=O)N[C@@H](Cc1c[nH]cn1)C(=O)N[C@H](C(=O)N[C@@H](CC(C)C)C(=O)N[C@H](C(=O)N[C@@H](CC(=O)O)C(=O)N[C@@H](CC(C)C)C(=O)N[C@@H](CC(C)C)C(=O)N[C@H](C(=O)N[C@@H](CC(=O)O)C(N)=O)C(C)C)C(C)C)C(C)C` [IFNGR1-7, ε-Pal-KGYDKPHVLVDLLVD-NH2] (H-K(Palmitoyl)GYDKPHVLVDLLVD-NH2; N-terminus assumed): 1000 nM.
On the same count and under the same terms, the same measure for `CCCCCCCCCCCCCCCC(=O)NCCCC[C@H](N)C(=O)N[C@@H](CO)C(=O)N[C@H](C(=O)N[C@@H](C)C(=O)N[C@@H](CC(C)C)C(=O)N[C@@H](CC(N)=O)C(=O)N[C@@H](CO)C(=O)N[C@@H](Cc1ccc(O)cc1)C(=O)N[C@@H](Cc1c[nH]cn1)C(=O)N[C@@H](CO)C(=O)N[C@@H](CCCNC(=N)N)C(=O)N[C@@H](CC(N)=O)C(N)=O)[C@@H](C)CC` [IFNGR1-8, ε-Pal-KSIALNSYHSRN-NH2] (H-K(Palmitoyl)SIALNSYHSRN-NH2; N-terminus assumed): 5000 ± 1000 nM; for `CCCCCCCCCCCCCCCC(=O)NCCCC[C@H](N)C(=O)NCC(=O)NCC(=O)N[C@@H](CCCCN)C(=O)N[C@@H](CCC(=O)O)C(=O)N[C@@H](CO)C(=O)N[C@@H](CC(C)C)C(=O)N[C@H](C(=O)NCC(=O)N[C@@H](Cc1ccc(O)cc1)C(=O)N[C@@H](CCCNC(=N)N)C(N)=O)[C@@H](C)CC` [IFNGR1-10, ε-Pal-KGGKESLIGYR-NH2] (H-K(Palmitoyl)GGKESLIGYR-NH2; N-terminus assumed): 2500 nM; for `CCCCCCCCCCCCCCCC(=O)NCCCC[C@H](N)C(=O)NCC(=O)N[C@@H](CCCCN)C(=O)N[C@@H](CCC(=O)O)C(=O)N[C@@H](CO)C(=O)N[C@@H](CC(C)C)C(=O)N[C@H](C(=O)NCC(=O)N[C@@H](Cc1ccc(O)cc1)C(=O)N[C@@H](CCCNC(=N)N)C(N)=O)[C@@H](C)CC` [IFNGR1-11, ε-Pal-KGKESLIGYR-NH2] (H-K(Palmitoyl)GKESLIGYR-NH2; N-terminus assumed): 2000 nM.
The same measure, in the same setting: the same measure for `CCCCCCCCCCCCCCCC(=O)NCCCC[C@H](N)C(=O)NCC(=O)N[C@@H](Cc1ccc(O)cc1)C(=O)N[C@@H](CC(=O)O)C(=O)N[C@@H](CCCCN)C(=O)N1CCC[C@H]1C(=O)N[C@@H](Cc1c[nH]cn1)C(=O)N[C@H](C(=O)N[C@@H](CC(C)C)C(=O)N[C@H](C(N)=O)C(C)C)C(C)C` [IFNGR1-12, ε-Pal-KGYDKPHVLV-NH2] (H-K(Palmitoyl)GYDKPHVLV-NH2; N-terminus assumed): 600 nM; for `CCCCCCCCCCCCCCCC(=O)NCCCC[C@H](N)C(=O)N[C@@H](CC(C)C)C(=O)N[C@@H](CC(N)=O)C(=O)N[C@@H](CO)C(=O)N[C@@H](Cc1ccc(O)cc1)C(=O)N[C@@H](Cc1c[nH]cn1)C(=O)N[C@@H](CO)C(=O)N[C@@H](CCCNC(=N)N)C(=O)N[C@@H](CC(N)=O)C(=O)NCC(=O)N[C@@H](CO)C(N)=O` [IFNGR1-13, ε-Pal-KLNSYHSRNGS-NH2] (H-K(Palmitoyl)LNSYHSRNGS-NH2; N-terminus assumed): 4500 nM; for `CCCCCCCCCCCCCCCC(=O)NCCCC[C@H](N)C(=O)NCC(=O)N[C@@H](Cc1ccc(O)cc1)C(=O)N[C@@H](CC(=O)O)C(=O)N[C@@H](CCCCN)C(=O)N1CCC[C@H]1C(=O)N[C@@H](Cc1c[nH]cn1)C(=O)N[C@H](C(N)=O)C(C)C` [IFNGR1-15, ε-Pal-KGYDKPHV-NH2] (H-K(Palmitoyl)GYDKPHV-NH2; N-terminus assumed): 1600 nM.
For `CCCCCCCCCCCCCCCC(=O)NCCCC[C@H](N)C(=O)N[C@@H](CCCCN)C(=O)N[C@@H](Cc1ccc(O)cc1)C(=O)N[C@@H](CCC(N)=O)C(=O)N[C@@H](CO)C(=O)N[C@@H](CCCNC(=N)N)C(=O)N[C@H](C(=O)N[C@@H](CCCCN)C(=O)N[C@@H](Cc1ccc(O)cc1)C(=O)N[C@@H](Cc1c[nH]c2ccccc12)C(=O)N[C@@H](Cc1ccccc1)C(=O)N[C@@H](CCC(N)=O)C(=O)N[C@@H](C)C(=O)N1CCC[C@H]1C(=O)N1CCC[C@H]1C(=O)N[C@@H](CC(N)=O)C(=O)N[C@H](C(=O)N1CCC[C@H]1C(=O)O)[C@@H](C)CC)C(C)C` [IFNGR2-1, ε-Pal-KKYQSRVKYWFQAPPNIP] (H-K(Palmitoyl)KYQSRVKYWFQAPPNIP-OH; N-terminus and C-terminus assumed), the GI50 is 5000 nM.

The same test, now with this note: Table 1; MTT assay after 48 hours exposure; concentration causing 50% inhibition in cell growth; read-out: GI50, MDA-MB-231.
On to `CCCCCCCCCCCCCCCC(=O)NCCCC[C@@H](NC(=O)[C@@H](CCCCN)NC(=O)[C@@H](CC(C)C)NC(=O)[C@H]1CCCN1C(=O)[C@@H](CO)NC(=O)[C@H](NC(=O)[C@@H](CC(C)C)NC(=O)[C@@H](CC(C)C)NC(=O)[C@@H](Cc1ccccc1)NC(=O)[C@@H](CCCCN)NC(=O)[C@@H](CCCCN)NC(=O)[C@H]1CCCN1C(=O)[C@@H](CO)NC(C)=O)C(C)C)C(N)=O` [IL10R1-9, Ac-SPKKFLLVSPLKK-ε-Pal] (Ac-[dS][dP][dK][dK][dF][dL][dL][dV][dS][dP][dL][dK][dK](Palmitoyl)-NH2; C-terminus assumed), for which the GI50 was determined as 1000 nM.
Turning to `CCCCCCCCCCCCCCCC(=O)NCCCC[C@@H](NC(=O)[C@@H](CCCCN)NC(=O)[C@@H](CC(C)C)NC(=O)[C@H]1CCCN1C(=O)[C@@H](CO)NC(=O)[C@H](NC(=O)[C@@H](CC(C)C)NC(=O)[C@@H](CC(C)C)NC(=O)[C@@H](Cc1ccccc1)NC(=O)[C@@H](CCCCN)NC(=O)[C@@H](CCCCN)NC(C)=O)C(C)C)C(N)=O` [IL10R1-10, Ac-KKFLLVSPLKK-ε-Pal] (Ac-[dK][dK][dF][dL][dL][dV][dS][dP][dL][dK][dK](Palmitoyl)-NH2; C-terminus assumed), the GI50 was found to be 1000 nM.
For the compound `CCCCCCCCCCCCCCCC(=O)NCCCC[C@@H](NC(=O)[C@@H](CCCCN)NC(=O)[C@@H](CC(C)C)NC(=O)[C@H]1CCCN1C(=O)[C@@H](CO)NC(=O)[C@H](NC(=O)[C@@H](CC(C)C)NC(=O)[C@@H](CC(C)C)NC(=O)[C@@H](Cc1ccccc1)NC(=O)[C@@H](CCCCN)NC(=O)[C@@H](CCCCN)NC(=O)[C@H]1CCCN1C(C)=O)C(C)C)C(N)=O` [IL10R1-11, Ac-PKKFLLVSPLKK-ε-Pal] (Ac-[dP][dK][dK][dF][dL][dL][dV][dS][dP][dL][dK][dK](Palmitoyl)-NH2; C-terminus assumed), the GI50 was determined as 1000 nM.

The test is the same for the next values; noted with them: Table 3; MDA-MB-231 breast cancer cell line growth; regions B, C, D of IFNGR1; read-out: GI50.
On to `CCCCCCCCCCCCCCCC(=O)NCCCC[C@H](N)C(=O)N[C@@H](Cc1ccccc1)C(=O)NCC(=O)N[C@@H](Cc1ccc(O)cc1)C(=O)N[C@@H](CC(=O)O)C(=O)N[C@@H](CCCCN)C(=O)N1CCC[C@H]1C(=O)N[C@@H](Cc1c[nH]cn1)C(=O)N[C@H](C(N)=O)C(C)C` [IFNGR1-16, ε-Pal-KFGYDKPHV-NH2] (H-K(Palmitoyl)FGYDKPHV-NH2; N-terminus assumed), for which the 50% growth inhibitory concentration (GI50) amounted to 2100 nM.
